Reference: patent US20210113586A1, “NEW USE AND METHODS OF MODULATING IMMUNE RESPONSES” (DIAMYD MEDICAL AB, priority 2018, published 2021)

System: non-responder CD4+ T cells
Test: Multiplex PEA of cytokines released into culture medium by non-responder CD4+ T cells
Format: cell-based, human
Protocol: The proliferation of freshly isolated human PBMCs or CD4^+ T cells was evaluated with MTT (3-(4,5-Dimethylthiazol-2-yl)-2,5-Diphenyltetrazolium Bromide) assay (Ring et al., 2012). Cells were suspended in complete medium (RPMI 1640 supplemented with 2 mM glutamine, 25 mM HEPES, 10% heat inactivated fetal bovine serum, 100 U/ml penicillin, 10 mg/ml streptomycin, 5 mM R-mercaptoethanol) in a concentration 1 million cells per milliliter. The assay was performed in 96-well plates in duplicates or triplicates, where each well was pre-coated with 3 μg/ml anti-CD3 antibody for 3-5 h at 37° C. Each well was loaded with 100,000 cells. Drugs were added to the wells at the relevant concentrations. The plate was incubated for 68 h at 37° C. (95% O2, 5% CO2) and then, a media-soluble tetrazolium dye MTT was added to a final concentration of 1 mM after which the plate was incubated for additional 4 h. The plate was then centrifuged at 2,000 RPM for 10 min to pellet the insoluble purple formazan crystals. The supernatant culture media was collected, stored at −80° C. and used for analysis of cytokines using the multiplex proximity extension assay (PEA). The formazan crystal pellet was dissolved in DMSO and the plate was read within 10 min using a Multiskan MS plate reader (Labsystems) at 550 nm. The optical density value was used as the proliferation index value. Drugs were purchased from Sigma-Aldrich or Tocris (Bristol, UK).
Plasma samples, and culture media samples that were collected from plate wells at the end of the proliferation assay, were analyzed by multiplex PEA with an Olink Inflammation […] panel, targeting 92 proteins related to inflammation (Olink Proteomics, Uppsala, Sweden) as previously described (Edvinsson et al., 2017, Assarsson et al., 2014, Larsson et al., 2015, Larssen et al., 2017). Briefly, 1 μl of sample (plasma samples or cell culture media samples) or negative control was mixed with 3 μl probe solution containing a set of 92 paires DNA-oligonucleotide-conjugated antibodies. Upon recognition of a target protein by a pair of probes, the DNA oligonucletodies on the antibodies are brought in proximity and hybridize to each other, followed by enzymatic DNA polymerization to form a new DNA molecule. The newly formed DNA molecule is then amplified and quantified using a microfluidic real-time qPCR, BioMark™ HD (Fluidigm, South San Francisco, Calif., USA). The generated quantification cycle (Cq) values are normalized against spiked-in controls to convert Cq values to Normalized Protein eXpression (NPX) value on log2 scale. NPX is an arbitrary unit, which is positively correlated to protein concentration. These NPX data were then converted to linear data, using the formula 2^NPX, prior to further statistical analysis. Limit of detection (LOD) for each protein was defined as three standard deviations above the background. Proteins with levels below LOD were excluded from further data analysis.

[1] = GABA 100 nM, non-responder CD4+ T cells, normalized to control
[2] = GABA 500 nM, non-responder CD4+ T cells, normalized to control

Compound: NCCCC(=O)O [GABA, gamma-aminobutyric acid]
- IL-1 alpha in culture medium, % Mean [1]: 112.8%
- MMP-1 in culture medium, % Mean [1]: 124.2%
- IL-5 in culture medium, % Mean [2]: 87.2%
- PD-L1 in culture medium, % Mean [2]: 120.4%
- TGF-alpha in culture medium, % Mean [2]: 109.5%
- number of cytokines whose secretion was regulated (GABA 100 and 500 nM, at each concentration): four
